Reference: US10954253B2, “1,2-dihydro-3H-pyrazolo[3,4-d]pyrimidin-3-one derivative as Wee1 inhibitor” (SHIJIAZHUANG SAGACITY NEW DRUG DEVELOPMENT CO., LTD., priority 2017, dated 2021)

Legend:
Wee1 = Wee1 (Homo sapiens (Human), UniProt P30291); experiment: In vitro enzymatic inhibitory activity (33P-ATP filter-binding kinase assay, MBP substrate); format: biochemical; conditions: Wee-1 150 nM, MBP 20 μM
Procedure: The compounds of the present invention for experimental use were all self-prepared, and their chemical names and structural formulas are shown in the preparation embodiments of the respective compounds. The experimental tests were carried out in Reaction Biology Corporation, USA, and the experimental results were provided by the company. Basic reaction buffer: 20 mM hydroxyethylpiperazine ethanesulfuric acid (pH 7.5), 10 mM magnesium chloride, 1 mM EGTA, 0.02% Brij35, 0.02 mg/mL bovine serum albumin, 0.1 mM Na3VO4, 2 mM DTT, 1% DMSO Enzyme: Wee-1 concentration is 150 nM Matrix: MBP concentration is 20 μM The tested compound was formulated into a 5 mM solution with 100% DMSO, and a 10 points 3-fold gradient dilution was performed with DMSO through an automated pipetting station epMotion 5070. 1. Fresh matrix configuration reaction buffer was prepared; 2. The Wee-1 was added into the matrix solution and shaked gently; 3. DMSO solution of the compound were added into the kinase reaction mixture using an acoustic technique (Echo 550; nanoliter range) and incubated for 20 minutes at room temperature; 4. ^33P-ATP (specific activity, 10 μCi/μL) was added into the reaction mixture to stimulate the reaction; 5. Incubated for 2 hours at room temperature; 6. Kinase activity was detected by filter-binding method.

[1] = Pharmacokinetic evaluation in BALB/c mice after intravenous and oral administration; format: in vivo; conditions: mouse, plasma, BALB/c mice (female), single intravenous injection and oral administration
Procedure: Experimental objective: pharmacokinetics evaluation of the compound in BALB/c nude mice.
The rodent pharmacological characteristics of the compound after intravenous administration and oral administration were tested by a standard protocol, the candidate compound in the experiment was formulated into a clear solution, and the mice were administered by a single intravenous injection and oral administration. The intravenous and oral vehicles are a certain proportion of aqueous hydroxypropyl 3-cyclodextrin or physiological saline solution.

[2] = Tissue distribution (PK) in BALB/c nude mice bearing human colon cancer LoVo xenografts; format: in vivo; conditions: mouse, LoVo xenograft mice, oral 40 mg/kg twice a day for three weeks, after last administration
Procedure: (1) In vivo PD study of the compound used on tumors of human colon cancer LoVo cells subcutaneously xenografted to BALB/c nude mice model
Experimental method: the experimental animals used were BALB/c nude mice (provided by Shanghai Xipuer-Beikai Experimental animal CO., Ltd), 6-8 weeks old, weighting 18-22 g.
Human colon cancer LoVo cells, monolayer-cultured in vitro, culturing condition was Ham's F-12 medium supplemented with 10% fetal bovine serum, 100 U/mL penicillin, 100 μg/mL streptomycin and 2 mM glutamine, 37° C., 5% CO2. Conventional digestion treatment passage was done with trypsin-EDTA twice a week. When the cell saturation reached 80%-90%, the cells were collected, counted, and inoculated. 0.1 mL (10×106) of LoVo cells were subcutaneously inoculated into the right back of each nude mouse, and group administration was started when the average tumor volume reached 213 mm^3. The administration mode was oral administration, 40 mg/kg twice a day for three consecutive weeks.
After the last administration of the experiment, a portion of plasma, tumor, intestine, brain, lung, liver and pancreas was collected from the number 1-2 animals after 0.5 h of administration, and quick-froze for PK detection; a portion of plasma, tumor, intestine, brain, lung, liver and pancreas was collected from the number 3-4 animals after 2 h of administration, and quick-froze for PK detection; a portion of plasma, tumor, intestine, brain, lung, liver and pancreas was collected from the number 5-6 animals after 8 h of administration, and quick-froze for PK detection. The tumor, intestine, brain, lung, liver and pancreas were weighted separately and added 9 times volumes of homogenate MeOH/15 mM PBS (1:2, v:v) for homogenization. 20 μL sample was added into 300 μL of the stop buffer including internal standard for protein precipitation, and shaked to mix well. The mixture was centrifuged at 13,000 rpm for 10 minutes at 20-25° C., and 3 μL of the supernatant was taken for LCMS analysis.

Sequence of Wee1 (P30291 whole entry): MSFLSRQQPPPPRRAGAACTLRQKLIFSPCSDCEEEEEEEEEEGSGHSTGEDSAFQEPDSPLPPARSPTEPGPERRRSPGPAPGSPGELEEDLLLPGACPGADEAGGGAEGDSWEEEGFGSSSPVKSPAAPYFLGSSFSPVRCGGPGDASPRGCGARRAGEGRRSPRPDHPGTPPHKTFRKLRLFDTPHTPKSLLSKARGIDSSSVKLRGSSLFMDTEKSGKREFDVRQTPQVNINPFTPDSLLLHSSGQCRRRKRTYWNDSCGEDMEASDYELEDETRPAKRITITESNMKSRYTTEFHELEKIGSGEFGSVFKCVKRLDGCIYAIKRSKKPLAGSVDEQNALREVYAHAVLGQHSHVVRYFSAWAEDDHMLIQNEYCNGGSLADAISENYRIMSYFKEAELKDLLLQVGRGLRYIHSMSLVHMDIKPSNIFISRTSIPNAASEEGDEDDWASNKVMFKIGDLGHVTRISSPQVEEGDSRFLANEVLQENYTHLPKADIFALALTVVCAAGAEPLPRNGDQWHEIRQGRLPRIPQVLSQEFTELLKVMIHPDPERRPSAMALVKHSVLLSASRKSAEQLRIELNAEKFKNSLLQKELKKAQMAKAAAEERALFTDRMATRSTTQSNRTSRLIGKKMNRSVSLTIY

Work on `C=CCn1c(=O)c2cnc(Nc3ccc(N4CCC5(CCN(C)CC5)CC4)cc3)nc2n1-c1cccc(C2(F)COC2)n1` [Embodiment 43, 2-allyl-1-(6-(3-fluorooxetan-3-yl)pyridin-2-yl)-6-((4-(9-methyl-3,9-diazaspiro[5.5]undecan-3-yl)phenyl)amino)-1H-pyrazolo[3,4-d]pyrimidin-3(2H)-one] yielded an IC50 (Wee1) of 12.1 nM, a clearance ([1]; read-out: Clearance rate) of 23 mL/min/kg and an AUC ([1]; read-out: Concentration integral AUC) of 5.59 µM·h. The half-life ([1]; read-out: Half-life T1/2 (converted)) was 109 min and the bioavailability ([1]; read-out: bioavailability F) was 45.1%.
With `C=CCn1c(=O)c2cnc(Nc3ccc(N4CCC5(CCN(C)CC5)CC4)cc3)nc2n1-c1ccc(F)c(C(C)(C)O)n1` [Compound 80, 2-allyl-1-(5-fluoro-6-(2-hydroxypropan-2-yl)pyridin-2-yl)-6-((4-(9-methyl-3,9-diazaspiro[5.5]undecan-3-yl)phenyl)amino)-1H-pyrazolo[3,4-d]pyrimidin-3(2H)-one] the IC50 (Wee1) was 49 nM.
Compound `C=CCn1c(=O)c2cnc(Nc3ccc(N4CCC5(CCN(C)CC5)CC4)cc3)nc2n1-c1cccc(C2(F)CC(F)(F)C2)n1` [Compound 65, 2-allyl-6((4-(9-methyl-3,9-diazaspiro[5.5]undecan-3-yl)phenyl)amino)-1-(6-(1,3,3-trifluorocyclobutyl)pyridin-2-yl)-1H-pyrazolo[3,4-d]pyrimidin-3(2H)-one] has an IC50 (Wee1) of 41.6 nM.
In the case of `C=CCn1c(=O)c2cnc(Nc3ccc(N4CCC5(CCN(C)CC5)CC4)cc3)nc2n1-c1ccc(F)cn1` [Embodiment 28, 2-allyl-1-(5-fluoropyridin-2-yl)-6-((4-(9-methyl-3,9-diazaspiro[5.5]undecan-3-yl)phenyl)amino)-1H-pyrazolo[3,4-d]pyrimidin-3(2H)-one], the IC50 (Wee1) is reported as 13.2 nM.
Work on `C=CCn1c(=O)c2cnc(Nc3ccc(N4CCC5(CCN(C)CC5)CC4)cc3)nc2n1-c1cccc(C2(OC)COC2)n1` [Compound 73, 2-allyl-1-(6-(3-methoxyoxetan-3-yl)pyridin-2-yl)-6-((4-(9-methyl-3,9-diazaspiro[5.5]undecan-3-yl)phenyl)amino)-1H-pyrazolo[3,4-d]pyrimidin-3(2H)-one] yielded an IC50 (Wee1) of 5.3 nM.
With `C=CCn1c(=O)c2cnc(Nc3ccc(N4CCC5(CCN(C)CC5)CC4)cc3)nc2n1-c1cccc(C2(O)CCC2)n1` [Embodiment 40, 2-allyl-1-(6-(1-hydroxycyclobutyl)pyridin-2-yl)-6-((4-(9-methyl-3,9-diazaspiro[5.5]undecan-3-yl)phenyl)amino)-1H-pyrazolo[3,4-d]pyrimidin-3(2H)-one] the IC50 (Wee1) was 30.7 nM.
Work on `C=CCn1c(=O)c2cnc(Nc3ccc(N4CCC5(CCN(C)CC5)CC4)c(F)c3)nc2n1-c1cccc(C(C)(C)O)n1` [Embodiment 34, 2-allyl-6((3-fluoro-4-(9-methyl-3,9-diazaspiro[5.5]undecan-3-yl)phenyl)amino)-1-(6-(2-hydroxypropan-2-yl)pyridin-2-yl)-1H-pyrazolo[3,4-d]pyrimidin-3(2H)-one] yielded an IC50 (Wee1) of 120 nM.
For `C=CCn1c(=O)c2cnc(Nc3ccc(N4CCC5(CCN(C)CC5)CC4)cc3)nc2n1-c1cccc(C(F)(F)F)n1` [Embodiment 46, 2-allyl-6-((4-(9-methyl-3,9-diazaspiro[5.5]undecane-3-yl)phenyl)amino)-1-(6-(trifluoromethyl)pyridin-2-yl)-1H-pyrazolo[3,4-d]pyrimidine-3(2H)-one], the IC50 (Wee1) was 44.6 nM.
With `C=CCn1c(=O)c2cnc(Nc3ccc(N4CCC5(CCN(C)CC5)CC4)cc3)nc2n1-c1cccc(C(C)C)n1` [Compound 67] the IC50 (Wee1) was 12.8 nM.
With `C=CCn1c(=O)c2cnc(Nc3ccc(N4CCC5(CCN(C)CC5)CC4)cc3)nc2n1-c1cccc(F)n1` [Embodiment 27, 2-allyl-1-(6-fluoropyridin-2-yl)-6-((4-(9-methyl-3,9-diazaspiro[5.5]undecane-3-yl)phenyl)amino)-1H-pyrazolo[3,4-d]pyrimidin-3(2H)-one] the IC50 (Wee1) was 24.9 nM.
With `C=CCn1c(=O)c2cnc(Nc3ccc(N4CCC5(CCN(C)CC5)CC4)cc3)nc2n1-c1cccs1` [Embodiment 7, 2-allyl-6-((4-(9-methyl-3,9-diazaspiro[5.5]undecan-3-yl)phenyl)amino)-1-(thiophen-2-yl)-1H-pyrazolo[3,4-d]pyrimidin-3(2H)-one] the IC50 (Wee1) was 82.5 nM.
For `C=CCn1c(=O)c2cnc(Nc3ccc(N4CCC5(CCN(C)CC5)CC4)cc3)nc2n1-c1cccc(P(C)(C)=O)n1` [Embodiment 59, 2-allyl-1-(6-(dimethylphosphory)pyridin-2-yl)-6-((4-(9-methyl-3,9-diazaspiro[5.5]undecan-3-yl)phenyl)amino)-1H-pyrazolo[3,4-d]pyrimidin-3(2H)-one], the IC50 (Wee1) was 22.6 nM.
With `C=CCn1c(=O)c2cnc(Nc3ccc(N4CCC5(CCN(C)CC5)CC4)cc3)nc2n1-c1cncnc1` [Embodiment 6, 2-allyl-6-((4-(9-methyl-3,9-diazaspiro[5.5]undecan-3-yl)phenyl)amino)-1-(pyrimidin-5-yl)-1H-pyrazolo[3,4-d]pyrimidin-3(2H)-one] the IC50 (Wee1) was 102 nM.
Work on `C=CCn1c(=O)c2cnc(Nc3ccc(N4CCC5(CCN(CC(F)F)CC5)CC4)cc3)nc2n1-c1cccc(C(C)(C)O)n1` [Embodiment 61] yielded an IC50 (Wee1) of 15.7 nM.
Compound `C=CCn1c(=O)c2cnc(Nc3ccc(N4CCC5(CCN(C)CC5)CC4)cc3)nc2n1-c1cccc(N2CCNC2=O)n1` [Embodiment 58, 2-allyl-6-((4(9-methyl-3,9-diazaspiro[5.5]undecan-3-yl)phenyl)amino)-1-(6-(2-oxo-1-imidazolidinyl)pyridin-2-yl)-1H-pyrazolo[3,4-d]pyrimidin-3(2H)-one] has an IC50 (Wee1) of 73 nM.
`C=CCn1c(=O)c2cnc(Nc3ccc(N4CCC5(CCN(C(C)=O)CC5)CC4)cc3)nc2n1-c1cccc(C(C)(C)O)n1` [Embodiment 30, 6-((4-(9-acetyl-3,9-diazaspiro[5.5]undecan-3-yl)phenyl)amino)-2-allyl-1-(6-(2-hydroxypropan-2-yl)pyridin-2-yl)-1H-pyrazolo[3,4-d]pyrimidin-3(2H)-one] showed an IC50 (Wee1) of 58.8 nM, an AUC(0-t) ([2]; Brain) of 2.12 µM·h and a Cmax ([2]; Brain) of 0.959 µM. It also gave a Tmax ([2]; Brain) of 0.5 h, an AUC(0-t) ([2]; Colon) of 402 µM·h and a Cmax ([2]; Colon) of 135 µM. The Tmax ([2]; Colon) was 0.5 h, the AUC(0-t) ([2]; liver) was 257 µM·h and the Cmax ([2]; liver) was 67.7 µM. For the same compound, the Tmax ([2]; liver) was 2 h, the AUC(0-t) ([2]; lung) was 74.7 µM·h and the Cmax ([2]; lung) was 14.6 µM. The Tmax ([2]; lung) was 2 h, the AUC(0-t) ([2]; pancreas) was 253 µM·h and the Cmax ([2]; pancreas) was 49.3 µM. The Tmax ([2]; pancreas) was 2 h, the AUC(0-t) ([2]; plasma) was 14.2 µM·h and the Cmax ([2]; plasma) was 4.27 µM. For the same compound, the Tmax ([2]; plasma) was 2 h, the AUC(0-t) ([2]; tumer (tumor)) was 37.3 µM·h and the Cmax ([2]; tumer (tumor)) was 5.42 µM. The Tmax ([2]; tumer (tumor)) was 8 h.
Work on `C=CCn1c(=O)c2cnc(Nc3ccc(N4CCC5(CCN(C)CC5)CC4)cc3)nc2n1-c1cccc([C@](C)(O)C(F)(F)F)n1` [Compound 75, (S)-2-allyl-6-((4-(9-methyl-3,9-diazaspiro[5.5]undecan-3-yl)phenyl)amino)-1-(6-(1,1,1-trifluoro-2-hydroxypropan-2-yl)pyridin-2-yl)-1H-pyrazolo[3,4-d]pyrimidin-3(2H)-one] yielded an IC50 (Wee1) of 17 nM.
Compound `C=CCn1c(=O)c2cnc(Nc3ccc(N4CCC5(CCN(C)CC5)CC4)cc3)nc2n1-c1cccc(N2CCN(C)C2=O)n1` [Embodiment 56] has an IC50 (Wee1) of 74 nM.
